Data on 1 molecule can be found in patent US10912767B2, “Anthracycline prodrugs and methods of making and using the same” (THE REGENTS OF THE UNIVERSITY OF COLORADO, priority 2015, dated 2021).

Each structure is given as a SMILES string. Like-named read-outs stand apart in the source and are kept apart here.

The test system of data set [1] is NCI/ADR-RES multi-drug resistant ovarian cancer cell line. As to the kind of experiment: Tumor cell growth inhibition, crystal violet (Example 2). As to conditions: for IC50: read-out: IC50. The format is cell-based. From the text:
(§1) In order to investigate the photolysis of the drugs in a system amenable to cell culture use, a custom UV irradiation apparatus was constructed, consisting of 3 small blacklight fluorescent bulbs (Southern New England Ultraviolet Co., λmax=350 nm) set between two ring stands and suspended at a height of 11.5 cm. The bulbs' housing was reflective aluminum so as to direct as much UV irradiation as possible downward toward the plate. Upon installation in sterile cell culture hood, the power of the system was measured at approximately 6-7 mW using a Scientech laser power meter. Prior to experimentation, the hood and irradiation apparatus was sterilized with 254 nm germicidal UV irradiation overnight. Using this setup, 100 μM of 4,5-dimethoxy-2-nitrobenyl alcohol (DMNA), photodoxazolidine R═H, and glucose-PEG-photodoxazoldine were irradiated in individual wells of a 24-well plate. Initially, 50 μL of a DMSO stock was diluted with 950 μL of PBS and aliquots of 50 μL were removed at various times (0-180 min), mixing by pipetting each time. The timepoints were analyzed by HPLC (method 2) and plotted as fractional conversion versus time. […] Therefore, a second experiment was performed in which the PBS was replaced with 1:1 acetonitrile:water. With this system of 5% DMSO/47.5% acetonitrile/47.5% water, no visible precipitation was produced over the course of the reaction.
The ovarian carcinoma line NCl/ADR-RES (ADR) was grown in high-glucose Dulbecco's Modified Eagle Medium (DMEM) supplemented with 10% fetal bovine serum (FBS), 200 units/mL of penicillin and 200 μg/mL of streptomycin. The breast carcinoma line MDA-MB-231 was cultured in low-glucose DMEM with the same additives. Both lines were maintained in a humidified incubator with 5% CO2/95% air at 37° C. UV irradiations were performed with the apparatus described above.
Growth inhibition experiments were performed by seeding cells into 96-well plates or 24-well plates at densities of 1000-1500 cells per well or 8000 cells per well, respectively, and allowing the cells to adhere overnight. The media was then replaced with a range of aqueous concentrations of the drug in question and allowed to incubate at 37° C. with the cells for a span of time (Inc1) which ranged from 1 min to 48 hours. Irradiation was performed at room temperature with the plate's lid removed and ranged from 1 to 30 min. In some experiments, the drug solution was removed following Inc1 and irradiated in clean media or PBS. Following irradiation, the cells were placed back into the 37° C. incubator for a second period of incubation (Inc2), which varied between 1 min and 24 h, prior to replacement with fresh media. Plates which received no irradiation but identical treatment otherwise were done in parallel. The cells were then grown until the no-drug control wells reached approximately 80% confluence or 5 days, whichever was shorter. […] The cells were fixed with 5% formalin in PBS, stained with crystal violet, washed with tap water, and air-dried. The stain was resolubilized in 50% isopropyl alcohol, 50% H2O containing 2% (w/v) SDS. The staining density was read on a multiwell plate reader at 588-600 nm. Percentage cell density was calculated relative to the irradiated no-drug control wells, plotted as a function of drug concentration, and fit using non-linear least squared analysis with a variable-slope dose response model in GraphPad Prism 5.0 software.
Although the introduction of a long-pass glass filter between the light source and the plate alleviated this effect to a small extent, a maximum irradiation time of 10 min was settled upon. […] Since a media change at that point would remove the cells as well, the re-adherence of the cell population was accomplished by the addition of a large volume (200 μL) of complete media following Inc2, and overnight incubation. Then, a full media change was done to remove the drug. […]

Data set [2] is described as follows: Photolysis timecourses, near UV blacklight 350 nm, HPLC. The class given is physicochemical.
Excerpt: as §1
The measured quantum yield of 0.002 for photodoxazolidine R═H (above) was lower than expected, which raised the possibility that the presence of the anthraquinone ring complex in the prodrugs was inhibiting photocleavage by quenching the activated state. To test whether this, the irradiation kinetics of DMNA (4, 5-dimethoxy-2-nitrobenzyl alcohol) was compared against photodoxazolidine R═H, which contains the DMNA unit as the photoactivating group. Additionally, glucose-PEG-photodoxazoldine was included for comparison; a synthetic precursor to this compound, azido-PEG-photodoxazolidine, is suspected of having a quantum yield of 0.01-0.02, which is 5-10-fold larger than photodoxazolidine. Irradiation was performed in 24-well cell culture dishes using the cell culture irradiation system described above with the soft-glass high-pass filter. […] In both cases, photodoxazolidine was the slowest to produce dox from the irradiation. In line with its quantum yield, glucose-PEG-photodoxazolidine reacted 4-5-fold faster than photodoxazolidine. However, DMNA was by far the fastest to undergo photochemistry in this system, converting to product approximately 30-fold faster than photodoxazolidine.

For data set [3], the system named is MDA-MB-231 breast carcinoma cells. As to the kind of experiment: Tumor cell uptake by flow cytometry. The class given is cell-based, human. As to conditions: 500 nM, 30 min to 4 h, compared against doxorubicin. On the procedure:
Uptake of the drugs by the cells was measured by flow cytometry. The cells were incubated with 500 nM photodoxazolidine R═H, azido-PEG-photodoxazolidine, or doxorubicin dissolved in 1:1 PBS:serum-free media for between 30 min and 4 h, after which the drug was removed and the cells washed with cold PBS. Cells were trypsinized to a single-cell suspension, rinsed again in cold PBS, and stored on ice for analysis by flow cytometry, monitoring the presence of the anthraquinone fluorophore (channel FL2). Cell populations were gated for intact cells in the side-scatter/forward-scatter plot and 10,000 gated events were scored for each timepoint. The mean fluorescence of the population was compared to the mean fluorescence of 10,000 gated events for an untreated population and the fold increase over background was plotted versus time of drug incubation.
Using MDA-MB-231 breast carcinoma cells, the cellular uptake of photodoxazolidine and azido-PEG-photodoxazolidine was analyzed by flow cytometry and compared against the uptake of doxorubicin.
(In flow cytometry, cells or beads pass a laser one at a time.)

Data set [4] can be described thus: Solubility observed in irradiation solvent. The class given is physicochemical. From the text: In order to investigate the photolysis of the drugs in a system amenable to cell culture use, a custom UV irradiation apparatus was constructed, consisting of 3 small blacklight fluorescent bulbs (Southern New England Ultraviolet Co., λmax=350 nm) set between two ring stands and suspended at a height of 11.5 cm. The bulbs' housing was reflective aluminum so as to direct as much UV irradiation as possible downward toward the plate. Upon installation in sterile cell culture hood, the power of the system was measured at approximately 6-7 mW using a Scientech laser power meter. Prior to experimentation, the hood and irradiation apparatus was sterilized with 254 nm germicidal UV irradiation overnight. Using this setup, 100 μM of 4,5-dimethoxy-2-nitrobenyl alcohol (DMNA), photodoxazolidine R═H, and glucose-PEG-photodoxazoldine were irradiated in individual wells of a 24-well plate. Initially, 50 μL of a DMSO stock was diluted with 950 μL of PBS and aliquots of 50 μL were removed at various times (0-180 min), mixing by pipetting each time. The timepoints were analyzed by HPLC (method 2) and plotted as fractional conversion versus time. […]
The measured quantum yield of 0.002 for photodoxazolidine R═H (above) was lower than expected, which raised the possibility that the presence of the anthraquinone ring complex in the prodrugs was inhibiting photocleavage by quenching the activated state. […]

On to `COc1cc(COC(=O)N2COC3C(C)OC(OC4CC(O)(C(=O)CO)Cc5c(O)c6c(c(O)c54)C(=O)c4c(OC)cccc4C6=O)CC32)c([N+](=O)[O-])cc1OC` (centres unmarked) [Photodoxazolidine], for which the “fold drop of IC50 on near UV irradiation” value in data set [1] (10 min UV vs alone) is “more than 30 fold”. Moreover, the IC50 (usually the concentration needed to halve the response being measured) was 0.11 µM in data set [1] (+UV 10 min, near UV 350 nm); 3.5 ± 0.8 µM in data set [1] (prodrug alone, no UV); ~3.5 µM in data set [1] (prodrug alone). For the same molecule, the “times more toxic than doxorubicin alone” value in data set [1] (prodrug alone) is recorded as 2-3 times. The “k in ACN: H2O, relative rate constant for photocleavage” value in data set [2] (100 μM, 1:1 acetonitrile:water, near UV 350 nm) amounted to 0.0069 min⁻¹. Moreover, the “k in PBS, relative rate constant for photocleavage” value in data set [2] (100 μM, PBS, near UV 350 nm) is 0.0026 min⁻¹. Besides, the “k in ACN: H2O, fold over photodoxazolidine” value in data set [2] (1:1 acetonitrile:water) is given as “(1.0)”. The “k in PBS, fold over photodoxazolidine” value in data set [2] (PBS) was “(1.0)”. The “cellular uptake (cellular fluorescence)” value in data set [3] was “rapid increase in cellular fluorescence”. In addition, the “solubility in PBS” value in data set [4] is reported as “poor solubility”.
